Experimental data: patent US20020049205A1, “Pyrazole antimicrobial agents” (priority 2000, published 2002)

Columns and labels:
B. su = assay: Minimum Inhibitory Concentration assay, B. su; assay type: cell-based; settings: LB medium, 16 hours, 37° C.; Table 3
Experimental: (§1) For Minimum Inhibitory Concentration (MIC) determinations for selected bacteria, log phase growing bacteria are re-suspended at 1×10^5 bacteria per mL in LB medium. The compound is added and two-fold dilutions are made. The final volume in the 96-well plate is about 100 μL. The plate is incubated at 37° C. in the dark with shaking. After 16 hours of incubation, growth is monitored by reading A600 or by visual inspection. MIC is defined as the minimum concentration of drug resulting in inhibition of visible growth of bacterial under the conditions described (above) in National Committee for Clinical Laboratory Standards 1993. Methods for dilution antimicrobial susceptibility tests for bacteria that grow aerobically. Approved standard M7-A3; National Committee for Clinical Laboratory Standards: Villanova, Pa.
as §1, with “MIC” for “Minimum Inhibitory Concentration (MIC)”

E.c(tolC) = assay: Minimum Inhibitory Concentration assay, E.c(tolC); assay type: cell-based; settings: 16 h, read-out: MIC (μM) E.c(tolC)
Experimental: as §1
as §1, with “MIC” for “Minimum Inhibitory Concentration (MIC)”

S. au = assay: Minimum Inhibitory Concentration assay, S. au; assay type: cell-based; settings: LB medium, 16 hours, 37° C.; Table 3
Experimental: as §1
as §1, with “MIC” for “Minimum Inhibitory Concentration (MIC)”

[1] = biological target: T1, Sigma^70 saturated E. coli RNA Polymerase (Escherichia coli, UniProt P0A7Z4+P0A800+P0A8T7+P0A8V2); assay: IC50 assay, inhibition of RNA polymerase; assay type: biochemical; settings: Table 3, heteroaryl compounds
T1 construct: purchased Epicenter
Experimental: One common assay involves evaluation of the compounds as RNA polymerase inhibitors. In this assay, buffer (250 mM KCl, 5% glycerol, 10 mM MgCl2, 0.1 mg/ml BSA) is combined with 6 mM β-M.E., PT5 DNA template, and 1.3 μg/rxn Sigma^70 saturated E. coli RNA Polymerase (Epicenter). The compound is then added in a manner not to exceed 5% DMSO. Nucleotide triphosphates are then added at the following concentration: 250 μM ATP, CTP and UTP with 100 μM cold CTP and 50 μM α-^32P CTP. The mixture is incubated for 10 min at about 37° C. A [2×] loading buffer is added and the mixture is then run on a 6% urea denaturing PAGE until bromophenol blue reaches the edge of plate. The gel is soaked (about 20 minutes in 10% MeOH and 10% acetic acid, to remove urea), then dried (about 55 minutes at about 85° C. (BioRad Gel Drier)) and exposed to a Phospho Imaging Plate for 1 hour. The plate is then read on a Fujix Bas1000 Imaging System and quantified using MacBas v2.0 software. An IC50 (in μM) can be calculated as the concentration of a drug which reduces the enzyme activity to 50% of the control.
In this assay, buffer (250 mM KCl, 5% Glycerol, 10 mM MgCl2, 0.1 mg/ml bovine serum albumin (BSA)) is combined with 6 mM β-mercaptoethanol, PT5 DNA template, and 1.3 μg/rxn Sigma^70 saturated E. coli RNA Polymerase (obtained from Epicenter). The compound is then added in a manner not to exceed 5% DMSO. Nucleotide triphosphates are then added at the following concentration: 250 μM ATP, CTP and UTP with 100 μM cold CTP and 50 μM α-32P CTP. The mixture is incubated for 10 min at about 37° C. A [2×] loading buffer is added and the mixture is then run on a 6% urea denaturing PAGE until bromophenol blue reaches the edge of plate. The gel is soaked (about 20 minutes in 10% MeOH and 10% acetic acid, to remove urea), then dried (about 55 minutes at about 85° C. (BioRad Gel Drier)) and exposed to a Phospho Imaging Plate for 1 hour. The plate is then read on a Fujix Bas1000 Imaging System and quantified using MacBas v2.0 software. An IC50 (in μM) can be calculated as the concentration of a compound of the invention that reduces the enzyme activity to 50% of the control. For the sake of clarity, the above-described assay is used to determine the IC50 values referenced in the claims. However, the skilled artisan will recognize that other methods can be used to determine an IC50 value.

T1 sequence (P0A8V2 whole entry): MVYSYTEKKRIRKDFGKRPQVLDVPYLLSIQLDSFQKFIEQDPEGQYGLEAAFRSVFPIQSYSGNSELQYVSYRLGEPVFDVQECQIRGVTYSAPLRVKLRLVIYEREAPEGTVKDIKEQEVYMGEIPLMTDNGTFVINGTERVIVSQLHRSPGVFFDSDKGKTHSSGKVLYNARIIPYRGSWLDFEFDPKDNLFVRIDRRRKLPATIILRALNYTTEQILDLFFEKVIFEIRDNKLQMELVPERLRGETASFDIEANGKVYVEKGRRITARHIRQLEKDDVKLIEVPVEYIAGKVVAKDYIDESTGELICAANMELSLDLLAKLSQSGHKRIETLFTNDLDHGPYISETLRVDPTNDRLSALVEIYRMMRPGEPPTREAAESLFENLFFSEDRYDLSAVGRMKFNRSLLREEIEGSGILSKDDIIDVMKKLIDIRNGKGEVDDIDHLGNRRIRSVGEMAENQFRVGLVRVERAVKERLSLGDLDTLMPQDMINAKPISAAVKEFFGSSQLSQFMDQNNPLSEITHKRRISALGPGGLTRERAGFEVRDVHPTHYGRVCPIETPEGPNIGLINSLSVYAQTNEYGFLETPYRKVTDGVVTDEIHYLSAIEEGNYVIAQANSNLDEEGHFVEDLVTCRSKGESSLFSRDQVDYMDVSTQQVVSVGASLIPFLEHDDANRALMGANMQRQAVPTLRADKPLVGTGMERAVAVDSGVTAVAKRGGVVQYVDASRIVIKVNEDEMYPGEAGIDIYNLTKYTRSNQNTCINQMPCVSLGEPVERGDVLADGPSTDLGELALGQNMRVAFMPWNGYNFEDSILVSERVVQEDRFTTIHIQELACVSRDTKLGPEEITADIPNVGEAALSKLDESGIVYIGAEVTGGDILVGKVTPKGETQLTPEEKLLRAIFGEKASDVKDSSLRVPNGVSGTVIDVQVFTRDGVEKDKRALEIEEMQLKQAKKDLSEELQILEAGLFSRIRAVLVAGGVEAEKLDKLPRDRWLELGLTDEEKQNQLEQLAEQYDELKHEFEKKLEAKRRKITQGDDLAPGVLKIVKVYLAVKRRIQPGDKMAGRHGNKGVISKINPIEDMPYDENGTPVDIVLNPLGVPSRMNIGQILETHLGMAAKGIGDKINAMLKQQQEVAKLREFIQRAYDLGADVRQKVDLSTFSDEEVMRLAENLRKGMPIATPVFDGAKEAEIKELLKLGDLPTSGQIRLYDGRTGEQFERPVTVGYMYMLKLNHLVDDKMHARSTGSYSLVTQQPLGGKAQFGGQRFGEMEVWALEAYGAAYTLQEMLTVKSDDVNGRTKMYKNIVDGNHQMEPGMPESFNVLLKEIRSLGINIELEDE
T1 sequence (P0A8T7 whole entry): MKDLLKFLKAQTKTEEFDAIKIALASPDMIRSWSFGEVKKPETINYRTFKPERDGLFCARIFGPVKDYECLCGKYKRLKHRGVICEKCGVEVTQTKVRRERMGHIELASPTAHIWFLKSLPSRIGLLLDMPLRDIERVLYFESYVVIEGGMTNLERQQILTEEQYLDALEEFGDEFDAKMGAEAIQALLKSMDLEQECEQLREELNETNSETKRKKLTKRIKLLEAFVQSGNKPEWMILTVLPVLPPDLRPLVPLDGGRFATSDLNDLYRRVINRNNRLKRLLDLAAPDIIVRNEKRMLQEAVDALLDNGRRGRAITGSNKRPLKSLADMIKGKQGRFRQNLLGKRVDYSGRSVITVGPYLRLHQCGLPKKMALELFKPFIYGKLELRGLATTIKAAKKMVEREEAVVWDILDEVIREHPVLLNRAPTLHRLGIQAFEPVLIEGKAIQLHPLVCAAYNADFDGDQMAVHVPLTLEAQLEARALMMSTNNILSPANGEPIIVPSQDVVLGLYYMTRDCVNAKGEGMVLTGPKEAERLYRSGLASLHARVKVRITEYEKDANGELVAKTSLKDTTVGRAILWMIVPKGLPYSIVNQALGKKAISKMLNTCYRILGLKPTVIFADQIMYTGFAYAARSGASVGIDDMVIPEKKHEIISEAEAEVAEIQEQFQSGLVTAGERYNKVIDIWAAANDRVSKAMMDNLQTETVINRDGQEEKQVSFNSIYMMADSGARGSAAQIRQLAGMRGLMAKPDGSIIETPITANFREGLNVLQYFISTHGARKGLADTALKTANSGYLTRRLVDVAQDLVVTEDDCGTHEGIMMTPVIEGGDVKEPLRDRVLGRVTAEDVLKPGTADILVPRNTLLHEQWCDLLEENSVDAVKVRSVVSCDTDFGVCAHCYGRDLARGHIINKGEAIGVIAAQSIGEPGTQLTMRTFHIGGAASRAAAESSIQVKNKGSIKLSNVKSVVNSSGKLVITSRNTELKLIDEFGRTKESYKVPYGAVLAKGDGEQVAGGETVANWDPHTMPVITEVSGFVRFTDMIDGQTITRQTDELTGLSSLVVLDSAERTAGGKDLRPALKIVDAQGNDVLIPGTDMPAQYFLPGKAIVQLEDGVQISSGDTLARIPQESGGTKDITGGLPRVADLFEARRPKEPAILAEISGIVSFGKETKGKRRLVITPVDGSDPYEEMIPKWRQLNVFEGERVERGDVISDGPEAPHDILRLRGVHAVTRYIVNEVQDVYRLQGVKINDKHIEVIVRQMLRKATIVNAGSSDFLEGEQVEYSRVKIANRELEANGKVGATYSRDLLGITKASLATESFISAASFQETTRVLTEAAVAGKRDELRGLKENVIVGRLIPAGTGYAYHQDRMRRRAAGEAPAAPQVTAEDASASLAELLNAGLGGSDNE
T1 sequence (P0A7Z4 whole entry): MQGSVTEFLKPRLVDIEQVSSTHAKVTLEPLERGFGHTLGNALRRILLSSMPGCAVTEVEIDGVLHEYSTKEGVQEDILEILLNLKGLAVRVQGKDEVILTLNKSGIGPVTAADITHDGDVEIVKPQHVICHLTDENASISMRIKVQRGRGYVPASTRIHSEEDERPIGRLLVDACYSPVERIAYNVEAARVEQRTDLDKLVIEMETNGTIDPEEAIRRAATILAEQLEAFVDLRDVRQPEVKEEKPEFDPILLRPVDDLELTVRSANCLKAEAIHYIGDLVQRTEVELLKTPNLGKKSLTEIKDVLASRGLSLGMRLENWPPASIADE
T1 sequence (P0A800 whole entry): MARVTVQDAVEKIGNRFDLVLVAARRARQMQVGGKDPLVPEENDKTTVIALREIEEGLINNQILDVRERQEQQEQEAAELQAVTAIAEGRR

Cc1c(-c2c[nH]nc2-c2ccc(F)cc2)sc2ccccc12 [Example 37]
< 500 µM: MIC (B. su) | MIC (E.c(tolC)) | MIC (S. au) | IC50 [1]

Fc1cccc(-c2c[nH]nc2-c2ccsc2)c1 [Example 38]
< 500 µM: MIC (B. su) | MIC (E.c(tolC)) | MIC (S. au) | IC50 [1]
